# Experiments:
# [1] = Amotosalen concentration post-UVA in FCV-spiked platelets, HPLC; assay type: physicochemical
# [2] = tested on: E. coli; assay: Photochemical inactivation of E. coli in human plasma with amotosalen and UVA, colony forming unit assay; assay type: cell-based; settings: for E. coli Log Reduction: ~6.4 J/cm^2, n = 2
# [3] = tested on: platelets; assay: Platelet quality, platelets in 100% plasma: 75 μM amotosalen + 340 nm (~6.4 or ~7.2 J/cm^2) or 150 μM + INT-100 (~3.6 J/cm^2, with CAD); assay type: cell-based
smiles,measurement,setting,value
"Cc1oc2c(C)c3oc(=O)cc(C)c3cc2c1COCCN [S-59, 3-(2-aminoethoxymethyl)-2,5,9-trimethylfuro[3,2-g]chromen-7-one]",S-59 post-UVA concentration,"[1]; 15 μM, 4 hr incubation, 340 nm ~3 J/cm^2",0.6 µM
same,S-59 post-UVA concentration,"[1]; 15 μM, 8 hr incubation, 340 nm ~3 J/cm^2",0.6 µM
same,S-59 post-UVA concentration,"[1]; 15 μM, 8 hr, 340 nm ~3 J/cm^2 Top Only",<1 µM
same,S-59 post-UVA concentration,"[1]; 15 μM, 8 hr, 340 nm ~3 J/cm^2 Top/Bottom",<1 µM
same,S-59 post-UVA concentration,"[1]; 15 μM, 24 hr incubation, 340 nm ~3 J/cm^2",0.6 µM
same,S-59 post-UVA concentration,"[1]; 15 μM, 24 hr, 340 nm ~3 J/cm^2 Top Only",<1 µM
same,S-59 post-UVA concentration,"[1]; 15 μM, 24 hr, 340 nm ~3 J/cm^2 Top/Bottom",<1 µM
same,S-59 post-UVA concentration,"[1]; 30 μM, 4 hr incubation, 340 nm ~3 J/cm^2",0.8 µM
same,S-59 post-UVA concentration,"[1]; 30 μM, 8 hr incubation, 340 nm ~3 J/cm^2",0.9 µM
same,S-59 post-UVA concentration,"[1]; 30 μM, 8 hr, 340 nm ~3 J/cm^2 Top Only",<1 µM
same,S-59 post-UVA concentration,"[1]; 30 μM, 8 hr, 340 nm ~3 J/cm^2 Top/Bottom",<1 µM
same,S-59 post-UVA concentration,"[1]; 30 μM, 24 hr incubation, 340 nm ~3 J/cm^2",0.8 µM
same,S-59 post-UVA concentration,"[1]; 30 μM, 24 hr, 340 nm ~3 J/cm^2 Top Only",<1 µM
same,S-59 post-UVA concentration,"[1]; 30 μM, 24 hr, 340 nm ~3 J/cm^2 Top/Bottom",<1 µM
same,S-59 post-UVA concentration,"[1]; 90 μM, 4 hr incubation, 340 nm ~3 J/cm^2",3.8 µM
same,S-59 post-UVA concentration,"[1]; 90 μM, 8 hr incubation, 340 nm ~3 J/cm^2",0.9 µM
same,S-59 post-UVA concentration,"[1]; 90 μM, 24 hr incubation, 340 nm ~3 J/cm^2",3.3 µM
same,S-59 post-UVA concentration,"[1]; 150 μM, 0 hr incubation, 340 nm, more than twice ~3 J/cm^2",2.1 µM
same,S-59 post-UVA concentration,"[1]; 150 μM, 0 hr, 340 nm Top Only",10.8 µM
same,S-59 post-UVA concentration,"[1]; 150 μM, 0 hr, 340 nm Top/Bottom",7.7 µM
same,Log reduction,"[2]; 340 nm, 1.5 μM, ~3 J/cm^2",1.3 log
same,Post-UVA titer,"[2]; 340 nm, 1.5 μM, ~3 J/cm^2",5.0 log cfu/mL
same,Pre-UVA titer,"[2]; 340 nm, 1.5 μM, ~3 J/cm^2",6.3 log cfu/mL
same,Log reduction,"[2]; 340 nm, 1.5 μM, ~6 J/cm^2",1.5 log
same,Post-UVA titer,"[2]; 340 nm, 1.5 μM, ~6 J/cm^2",4.8 log cfu/mL
same,Pre-UVA titer,"[2]; 340 nm, 1.5 μM, ~6 J/cm^2",6.3 log cfu/mL
same,Log reduction,"[2]; 340 nm, 1.5 μM, ~9 J/cm^2",1.4 log
same,Post-UVA titer,"[2]; 340 nm, 1.5 μM, ~9 J/cm^2",4.9 log cfu/mL
same,Pre-UVA titer,"[2]; 340 nm, 1.5 μM, ~9 J/cm^2",6.3 log cfu/mL
same,Log reduction,"[2]; 340 nm, 15 μM, ~3 J/cm^2",4.7 log
same,Post-UVA titer,"[2]; 340 nm, 15 μM, ~3 J/cm^2",1.4 log cfu/mL
same,Pre-UVA titer,"[2]; 340 nm, 15 μM, ~3 J/cm^2",6.1 log cfu/mL
same,Log reduction,"[2]; 340 nm, 15 μM, ~6 J/cm^2",5.6 log
same,Post-UVA titer,"[2]; 340 nm, 15 μM, ~6 J/cm^2",0.5 log cfu/mL
same,Pre-UVA titer,"[2]; 340 nm, 15 μM, ~6 J/cm^2",6.1 log cfu/mL
same,Log reduction,"[2]; 340 nm, 15 μM, ~9 J/cm^2",5.6 log
same,Post-UVA titer,"[2]; 340 nm, 15 μM, ~9 J/cm^2",0.5 log cfu/mL
same,Pre-UVA titer,"[2]; 340 nm, 15 μM, ~9 J/cm^2",6.1 log cfu/mL
same,Log reduction,"[2]; 340 nm, 150 μM, ~3 J/cm^2",>7.0 log
same,Post-UVA titer,"[2]; 340 nm, 150 μM, ~3 J/cm^2",<−0.7 log cfu/mL
same,Pre-UVA titer,"[2]; 340 nm, 150 μM, ~3 J/cm^2",6.3 log cfu/mL
same,E. coli Log Reduction,"[2]; 340 nm, 220 mL plasma, 15 μM",6.0 log
same,E. coli Log Reduction,"[2]; 340 nm, 350 mL plasma, 15 μM",4.6 log
same,Log reduction,"[2]; INT-100, 15 μM, ~3 J/cm^2",4.2 log
same,Post-UVA titer,"[2]; INT-100, 15 μM, ~3 J/cm^2",2.0 log cfu/mL
same,Pre-UVA titer,"[2]; INT-100, 15 μM, ~3 J/cm^2",6.2 log cfu/mL
same,Log reduction,"[2]; INT-100, 150 μM, ~3 J/cm^2",>7.1 log
same,Post-UVA titer,"[2]; INT-100, 150 μM, ~3 J/cm^2",<−0.7 log cfu/mL
same,Pre-UVA titer,"[2]; INT-100, 150 μM, ~3 J/cm^2",6.4 log cfu/mL
same,E. coli Log Reduction,"[2]; INT-100, 220 mL plasma, 15 μM",5.3 log
same,E. coli Log Reduction,"[2]; INT-100, 350 mL plasma, 15 μM",4.4 log
same,Extent of Shape Change (ESC),"[3]; 340/~6.4, D5",22.15
same,Hypotonic Shock Response (HSR),"[3]; 340/~6.4, D5",56.50
same,Morphology (Kunicki score),"[3]; 340/~6.4, D5",271.50
same,P-selectin (CD62P),"[3]; 340/~6.4, D5",51.70
same,pCO2,"[3]; 340/~6.4, D5",35.00 mmHg
same,pH @ 22° C.,"[3]; 340/~6.4, D5",7.15
same,pH @ 37° C.,"[3]; 340/~6.4, D5",6.92
same,pO2,"[3]; 340/~6.4, D5",59.75 mmHg
same,Extent of Shape Change (ESC),"[3]; 340/~6.4, D7",16.45
same,Hypotonic Shock Response (HSR),"[3]; 340/~6.4, D7",45.98
same,Morphology (Kunicki score),"[3]; 340/~6.4, D7",259.00
same,P-selectin (CD62P),"[3]; 340/~6.4, D7",67.65
same,pCO2,"[3]; 340/~6.4, D7",30.95 mmHg
same,pH @ 22° C.,"[3]; 340/~6.4, D7",6.95
same,pH @ 37° C.,"[3]; 340/~6.4, D7",6.72
same,pO2,"[3]; 340/~6.4, D7",61.80 mmHg
same,pCO2,"[3]; 340/~6.4, Post-UVA",43.60 mmHg
same,pH @ 22° C.,"[3]; 340/~6.4, Post-UVA",7.30
same,pH @ 37° C.,"[3]; 340/~6.4, Post-UVA",7.07
same,pO2,"[3]; 340/~6.4, Post-UVA",42.90 mmHg
same,Extent of Shape Change (ESC),"[3]; 340/~6.4, Pre-UVA",20.60
same,Hypotonic Shock Response (HSR),"[3]; 340/~6.4, Pre-UVA",45.40
same,Morphology (Kunicki score),"[3]; 340/~6.4, Pre-UVA",265.50
same,P-selectin (CD62P),"[3]; 340/~6.4, Pre-UVA",31.95
same,pCO2,"[3]; 340/~6.4, Pre-UVA",55.20 mmHg
same,pH @ 22° C.,"[3]; 340/~6.4, Pre-UVA",7.29
same,pH @ 37° C.,"[3]; 340/~6.4, Pre-UVA",7.06
same,pO2,"[3]; 340/~6.4, Pre-UVA",37.60 mmHg
same,Extent of Shape Change (ESC),"[3]; 340/~7.2, D5",26.73
same,Hypotonic Shock Response (HSR),"[3]; 340/~7.2, D5",51.87
same,Morphology (Kunicki score),"[3]; 340/~7.2, D5",287.67
same,P-selectin (CD62P),"[3]; 340/~7.2, D5",45.00
same,pCO2,"[3]; 340/~7.2, D5",37.47 mmHg
same,pH @ 22° C.,"[3]; 340/~7.2, D5",7.11
same,pH @ 37° C.,"[3]; 340/~7.2, D5",6.88
same,pO2,"[3]; 340/~7.2, D5",49.33 mmHg
same,Extent of Shape Change (ESC),"[3]; 340/~7.2, D7",19.47
same,Hypotonic Shock Response (HSR),"[3]; 340/~7.2, D7",49.47
same,Morphology (Kunicki score),"[3]; 340/~7.2, D7",254.67
same,P-selectin (CD62P),"[3]; 340/~7.2, D7",56.93
same,pCO2,"[3]; 340/~7.2, D7",32.70 mmHg
same,pH @ 22° C.,"[3]; 340/~7.2, D7",6.94
same,pH @ 37° C.,"[3]; 340/~7.2, D7",6.72
same,pO2,"[3]; 340/~7.2, D7",56.07 mmHg
same,pCO2,"[3]; 340/~7.2, Post-UVA",47.23 mmHg
same,pH @ 22° C.,"[3]; 340/~7.2, Post-UVA",7.32
same,pH @ 37° C.,"[3]; 340/~7.2, Post-UVA",7.09
same,pO2,"[3]; 340/~7.2, Post-UVA",32.93 mmHg
same,Extent of Shape Change (ESC),"[3]; 340/~7.2, Pre-UVA",23.50
same,Hypotonic Shock Response (HSR),"[3]; 340/~7.2, Pre-UVA",49.67
same,Morphology (Kunicki score),"[3]; 340/~7.2, Pre-UVA",279.33
same,P-selectin (CD62P),"[3]; 340/~7.2, Pre-UVA",27.77
same,pCO2,"[3]; 340/~7.2, Pre-UVA",54.43 mmHg
same,pH @ 22° C.,"[3]; 340/~7.2, Pre-UVA",7.31
same,pH @ 37° C.,"[3]; 340/~7.2, Pre-UVA",7.08
same,pO2,"[3]; 340/~7.2, Pre-UVA",31.77 mmHg
same,Extent of Shape Change (ESC),"[3]; INT-100, D5",25.20
same,Hypotonic Shock Response (HSR),"[3]; INT-100, D5",55.10
same,Morphology (Kunicki score),"[3]; INT-100, D5",265.67
same,P-selectin (CD62P),"[3]; INT-100, D5",39.07
same,pCO2,"[3]; INT-100, D5",31.83 mmHg
same,pH @ 22° C.,"[3]; INT-100, D5",7.16
same,pH @ 37° C.,"[3]; INT-100, D5",6.93
same,pO2,"[3]; INT-100, D5",69.77 mmHg
same,Extent of Shape Change (ESC),"[3]; INT-100, D7",19.82
same,Hypotonic Shock Response (HSR),"[3]; INT-100, D7",46.00
same,Morphology (Kunicki score),"[3]; INT-100, D7",274.67
same,P-selectin (CD62P),"[3]; INT-100, D7",58.77
same,pCO2,"[3]; INT-100, D7",28.47 mmHg
same,pH @ 22° C.,"[3]; INT-100, D7",6.96
same,pH @ 37° C.,"[3]; INT-100, D7",6.74
same,pO2,"[3]; INT-100, D7",70.37 mmHg
same,pCO2,"[3]; INT-100, Post-UVA",54.60 mmHg
same,pH @ 22° C.,"[3]; INT-100, Post-UVA",7.17
same,pH @ 37° C.,"[3]; INT-100, Post-UVA",6.94
same,pO2,"[3]; INT-100, Post-UVA",62.87 mmHg
same,Extent of Shape Change (ESC),"[3]; INT-100, Pre-UVA",23.50
same,Hypotonic Shock Response (HSR),"[3]; INT-100, Pre-UVA",49.67
same,Morphology (Kunicki score),"[3]; INT-100, Pre-UVA",279.33
same,P-selectin (CD62P),"[3]; INT-100, Pre-UVA",27.77
same,pCO2,"[3]; INT-100, Pre-UVA",54.43 mmHg
same,pH @ 22° C.,"[3]; INT-100, Pre-UVA",7.31
same,pH @ 37° C.,"[3]; INT-100, Pre-UVA",7.08
same,pO2,"[3]; INT-100, Pre-UVA",31.77 mmHg

# — patent US12214092B2, “Systems and methods for treating biological fluids” (Cerus Corporation, priority 2017, dated 2025)
